Assay results reported in PubChem BioAssay (NCI).
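A five-concentration, 48-hour dose response in 96-well plates underlies each endpoint, interpolated linearly between surrounding concentrations. TGI: total growth inhibition.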

What was measured:
Assay in all cases: DTP human tumour cell line panel, 48 h
DMS 114 small cell lung = system: DMS 114 small cell lung
HCC-2998 colon = system: HCC-2998 colon
LXFL 529 NSCLC = system: LXFL 529 NSCLC
SNB-78 CNS = system: SNB-78 CNS
SK-MEL-28 melanoma = system: SK-MEL-28 melanoma
DMS 273 small cell lung = system: DMS 273 small cell lung
HOP-18 NSCLC = system: HOP-18 NSCLC
M19-MEL melanoma = system: M19-MEL melanoma
MDA-MB-435 = system: MDA-MB-435
XF 498 CNS = system: XF 498 CNS
DU-145 prostate = system: DU-145 prostate
BT-549 breast = system: BT-549 breast
MDA-MB-231 breast = system: MDA-MB-231 breast

| SMILES | TGI (DMS 114 small cell lung) | TGI (HCC-2998 colon) | TGI (LXFL 529 NSCLC) | TGI (SNB-78 CNS) | TGI (SK-MEL-28 melanoma) | TGI (DMS 273 small cell lung) | TGI (HOP-18 NSCLC) | TGI (M19-MEL melanoma) | TGI (MDA-MB-435) | TGI (XF 498 CNS) | TGI (DU-145 prostate) | TGI (BT-549 breast) | TGI (MDA-MB-231 breast) |
| --- | --- | --- | --- | --- | --- | --- | --- | --- | --- | --- | --- | --- | --- |
| Cc1ccc(C(=O)/C=C/c2ccccc2Cl)cc1 | 35.5 µM | 33.2 µM | 28.7 µM | 46.8 µM | 29.2 µM | 29.4 µM | 76.1 µM | 33.5 µM |  |  |  |  |  |
| C=C1CC2(OC1=O)c1ccccc1CCc1ccccc12 | 3.42 µM | 6.51 µM | 3.07 µM | 4.43 µM | 3.35 µM | 11.3 µM | 4.61 µM | 3.36 µM | 6.15 µM | 3.88 µM | 32.7 µM | 3.78 µM | 21.2 µM |
| CC1CC(=O)C(C(O)CC2CC(=O)N(c3ccccc3)C(=O)C2)C(C)C1 (stereo unspecified) | > 100 µM | > 100 µM | > 100 µM | > 100 µM | > 100 µM | > 100 µM | > 100 µM | > 100 µM |  |  |  |  |  |
| CCCCCN(CCCCC)C(=O)[C@@H](CCC(=O)OCc1ccccc1)NC(=O)c1cc2ccccc2[nH]1 | > 100 µM | > 100 µM | > 100 µM | > 100 µM | > 100 µM | > 100 µM | > 100 µM |  |  |  |  |  |  |
| Cc1cccc(NC(=O)CC2C(=O)Nc3ccccc3S2(=O)=O)c1C (stereo unspecified) | 51.6 µM | > 100 µM | > 100 µM | 77.3 µM | > 100 µM | > 100 µM | 61.9 µM | > 100 µM |  |  |  |  |  |
| C=C(C)C1CC[C@]2(C(=O)O)CCC3(C)[C@H](CCC4[C@@]5(C)CC[C@H](OC6OC(CO)C(O)C6OC6OC(C)C(O)C(O)C6O)[C@@](C)(CO)C5CC[C@]43C)C12 (stereo partly specified) | > 100 µM | > 100 µM | > 100 µM | > 100 µM | > 100 µM | > 100 µM |  | > 100 µM |  | > 100 µM |  |  |  |
| COc1ccc(-c2c(N)[n+]([O-])c3cc(C)c(C)cc3[n+]2[O-])cc1OC | 67.8 µM | > 100 µM | > 100 µM | > 100 µM | > 100 µM | > 100 µM | > 100 µM | > 100 µM |  | > 100 µM |  |  |  |
| CSc1s[s+]c(SC)c1[O-] | 34.6 µM | > 100 µM | 38.7 µM | > 100 µM | 34.2 µM | > 100 µM | > 100 µM | 29.5 µM |  | > 100 µM |  |  |  |
| C=C(CO)CC(O)c1ccccc1 (stereo unspecified) | > 100 µM | > 100 µM | > 100 µM | > 100 µM | > 100 µM | > 100 µM |  | > 100 µM |  | > 100 µM |  |  |  |
| C/C=C/C=C/[C@H]1Cc2cc(O)cc(O)c2O1 | > 100 µM |  | > 100 µM | > 100 µM | > 100 µM | > 100 µM | > 100 µM | > 100 µM |  | > 100 µM |  |  |  |
| CC1=CCC2(C#N)CCC1C2=O (stereo unspecified) | > 100 µM |  | > 100 µM | > 100 µM |  |  |  | > 100 µM |  | > 100 µM |  |  |  |
| COC(=O)C1CCc2c(OC)ccc(OC)c2C1=O (stereo unspecified) | > 100 µM | > 100 µM | > 100 µM | > 100 µM | > 100 µM | > 100 µM | > 100 µM | > 100 µM |  |  |  |  |  |
| COCCN1C2=CCCCC2=Nc2c(N)nc(N)nc21 | > 100 µM | > 100 µM | > 100 µM | > 100 µM | > 100 µM | > 100 µM | > 100 µM | > 100 µM |  | > 100 µM |  |  |  |
| CN/N=C(\C)CC(=O)Nc1cccc(Cl)c1C | > 100 µM | > 100 µM | > 100 µM | > 100 µM | > 100 µM | > 100 µM | > 100 µM | > 100 µM |  | > 100 µM |  |  |  |
| O=C1C=C(Br)C(=O)C(Br)=C1 | > 100 µM | > 100 µM | > 100 µM | > 100 µM | > 100 µM | > 100 µM | > 100 µM | > 89.6 µM |  | > 100 µM |  |  |  |
| CNC(=O)OCc1nc(S(C)=O)n(C)c1COC(=O)NC (stereo unspecified) | > 56.2 µM | > 100 µM | > 51.8 µM | > 92.1 µM | > 100 µM | > 100 µM | > 100 µM | > 63.2 µM |  | > 100 µM |  |  |  |

| SMILES | TGI (DMS 114 small cell lung) | TGI (HCC-2998 colon) | TGI (LXFL 529 NSCLC) | TGI (SNB-78 CNS) | TGI (SK-MEL-28 melanoma) | TGI (DMS 273 small cell lung) | TGI (HOP-18 NSCLC) | TGI (M19-MEL melanoma) | TGI (MDA-MB-435) | TGI (XF 498 CNS) | TGI (DU-145 prostate) | TGI (BT-549 breast) | TGI (MDA-MB-231 breast) |
| --- | --- | --- | --- | --- | --- | --- | --- | --- | --- | --- | --- | --- | --- |
| Fc1cccc(F)c1C1SCc2nc3ccccc3n21 (stereo unspecified) |  | > 100 µM | > 100 µM | > 100 µM |  | > 100 µM | > 100 µM | > 100 µM |  | > 100 µM |  |  |  |
| CC(=O)O[C@H]1CCC2[C@@H]3CCC4C(=O)c5oncc5C[C@]4(C)C3CC[C@@]21C (stereo partly specified) | > 100 µM | > 100 µM | > 100 µM | > 100 µM | > 100 µM | > 100 µM |  | > 100 µM |  | > 100 µM |  |  |  |
| COC1OC(C)C(OC(=O)C(C)(C)C)C(C)(O)C1O (stereo unspecified) |  | > 100 µM | > 100 µM | > 100 µM | > 100 µM | > 100 µM | > 100 µM | > 100 µM |  | > 100 µM |  |  |  |
| O=C(O)C1Cc2nc[nH]c2CN1 (stereo unspecified) | > 100 µM | > 100 µM | > 100 µM | > 100 µM | > 100 µM | > 100 µM | > 100 µM | > 100 µM |  |  |  |  |  |
| Cc1c2n(c3ccccc13)CC1C2N(C)OC1(C)C (stereo unspecified) | > 100 µM | > 100 µM |  | > 100 µM | > 100 µM | > 100 µM |  | > 100 µM |  | > 100 µM |  |  |  |
| CC(NC1CCC[C@H]1O)c1ccccc1 (mixture of isomers) | > 100 µM | > 100 µM |  | > 100 µM | > 100 µM | > 100 µM | > 100 µM | > 100 µM |  | > 100 µM |  |  |  |
| Cc1ccccc1NC(=O)C(=O)Cc1nc2ccccc2s1 | > 100 µM | > 100 µM | > 100 µM | > 100 µM | > 100 µM | > 100 µM | > 100 µM | > 100 µM |  | > 100 µM |  |  |  |
| Oc1cccc(C2SCc3nc4ccccc4n32)c1 (stereo unspecified) | > 100 µM | > 100 µM | > 100 µM | > 100 µM | > 100 µM | > 100 µM | > 100 µM |  |  |  |  |  |  |
| Cc1oc2c(c1C(=O)c1ccccc1)C(=O)c1ccccc1C2=O | 8.03 µM | 29.1 µM | 3.1 µM | > 100 µM | 24.3 µM | 26.7 µM | 30.4 µM | 4.93 µM | 2.97 µM | 5.18 µM | 24.6 µM | 19.9 µM | 7.07 µM |
| CC(C)(C)C1CCC2c3c([nH]c4ccccc34)C3C(=O)N(c4ccc(Br)cc4)C(=O)C3C2C1 (stereo unspecified) | 41.6 µM | 11.9 µM | 48.1 µM | > 100 µM | > 100 µM | 31.9 µM | > 100 µM | 33.2 µM |  | 76.2 µM |  |  |  |
| COc1ccc(C(=O)C(C(=O)C(=O)Nc2nc3ccc(OC)cc3s2)c2ccc(OC)cc2)cc1 (stereo unspecified) | > 100 µM | > 100 µM | > 100 µM | > 100 µM | > 100 µM | > 100 µM | > 100 µM | > 100 µM |  | > 100 µM |  |  |  |
| O=C1CCC(=O)c2cc(Br)ccc2N1 | > 100 µM | > 100 µM | > 100 µM | > 100 µM | > 100 µM | > 100 µM | > 100 µM | > 100 µM |  | > 100 µM |  |  |  |
| CC(=O)Nc1ccc(/C=c2\sc3nnc(/C=C/c4ccccc4)n3c2=O)cc1 | > 50 µM | > 50 µM | > 50 µM | > 50 µM | > 50 µM | > 50 µM | > 50 µM | > 50 µM |  | > 50 µM |  |  |  |
| CCC(=S)N(C)O | 5.82 µM | > 95.7 µM | > 100 µM | > 100 µM | > 100 µM |  |  | > 51.7 µM | > 100 µM | 29.8 µM | > 100 µM | > 100 µM | > 100 µM |
| N/C(=N\C(=S)N1CCCCC1)N1CCCCC1 | > 100 µM | > 100 µM | > 100 µM | > 100 µM | > 100 µM | > 100 µM | > 100 µM | > 100 µM |  | > 100 µM |  |  |  |
